Reference: a compilation of properties of binary mixtures (doi:10.1016/j.molliq.2013.09.012)

Assay: xn = mol fraction of the nth substance listed
Settings: 298.15 K, 101 kPa

SMILES	viscosity (x1 = 0.1949)	viscosity (x1 = 0.2959)	viscosity (x1 = 0.3803)	viscosity (x1 = 0.5991)	viscosity (x1 = 0.7005)	viscosity (x1 = 0.8066)	viscosity (x1 = 1)	viscosity (x2 = 0)	viscosity (x2 = 0.1)	viscosity (x2 = 0.1449)	viscosity (x2 = 0.4008)	viscosity (x2 = 0.4992)	viscosity (x2 = 0.6009)	viscosity (x2 = 0.7007)	viscosity (x2 = 0.8983)
CCCN + CCCCCC[n+]1ccn(C)c1.F[B-](F)(F)F	97.3 mPa·s	69.2 mPa·s	50.3 mPa·s	17.7 mPa·s	10.1 mPa·s	4.466 mPa·s	0.358 mPa·s	–	–	–	–	–	–	–	–
CCCCCC[n+]1ccn(C)c1.F[B-](F)(F)F + CC(C)(C)O	–	–	–	–	–	–	–	171.8 mPa·s	131.4 mPa·s	115.6 mPa·s	49.8 mPa·s	34.1 mPa·s	23.3 mPa·s	18 mPa·s	11 mPa·s
CC(C)(C)O + CCCCCC[n+]1ccn(C)c1.F[B-](F)(F)F	–	–	–	–	–	–	4.444 mPa·s	–	–	–	–	–	–	–	–
